SMILES strings stand for the structures. Where two headings read alike, the source gives them in different places.

A short description of data set [1]: Pharmacokinetic evaluation after subcutaneous injection into rats. Format: in vivo. The procedure: The pharmacokinetic evaluation of the GS-441524-containing PLGA microspheres of Example F3 according to the disclosure was carried out. Rats as test animals were randomly divided into test and control groups, with 5 animals in each group, and raised under the same conditions while predetermined amounts of solid food and water were supplied for 7 days. The rats were fasted for 12 hours before testing, and then used for testing.
The test group was subcutaneously administered GS-441524 at a dose corresponding to 28 mg/kg by using the PLGA microspheres of Example F3 of the disclosure, and the control group was subcutaneously administered 28 mg/kg GS-441524 alone. Approximately 300 μL of blood was collected by retro-orbital bleeding 1, 2, 4, 8, 12, 24, 48, 72, 96, 120, and 144 hours after the subcutaneous injection to the rats. Each of the obtained samples was centrifuged at 15,000 rpm for 5 minutes to separate the plasma, and then stored at −70° C. before analysis.
Plasma sample pre-treatment was performed using a deproteination method. After 100 μL of a plasma sample was taken, 200 μL of methanol (the internal standard substance 10 ng/MI verapamil) was added thereto, followed by mixing for 10 minutes and then extraction. The extract was centrifuged at 17,000 rpm for 10 minutes, and then the supernatant was collected and analyzed using LC-MS/MS to quantify GS-441524 in the blood.

For data set [2] the following is noted: in humans; cited from earlier work.
Setting [3] is: rat, plasma, sc, 28 mg/kg GS-441524.

The Cmax is the peak of the concentration-time curve. The half-life is the time needed for the level to fall by half in the phase considered. In data set [1] (28 mg/kg GS-441524), `N#C[C@@]1(c2ccc3c(N)ncnn23)O[C@H](CO)[C@@H](O)[C@H]1O` [GS-441524, (2R,3R,4S,5R)-2-(4-aminopyrrolo[2,1-f][1,2,4]triazin-7-yl)-3,4-dihydroxy-5-(hydroxymethyl) oxolane-2-carbonitrile] returned a Cl of 17.32 ± 9.32 mL/min/kg and a Vz of 81.261 ± 84.077 L/kg. Besides, in data set [1] (setting [3]), the concentration peaked (Cmax) at 8170 ± 4080 ng/mL and the half-life was 61.5 ± 66.2 h. In data set [1] (rat, plasma, sc, 28 mg/kg GS-441524, read-out: AUC0→144), the AUC(0-t) worked out at 31600 ± 14300 ng·h/mL. Further, the half-life result in data set [2] was “about 24 hours”.
